US6469028B1, “Synthesis and use of retinoid compounds having negative hormone and/or anatgonist activities” (Allergan, Inc., priority 1995, dated 2002)

Key:
[1] = system: 1,25-dihydroxyvitamin D3-dependent gene expression; assay: Example 14: 1,25-dihydroxyvitamin D3 transactivation, MTV-VDRE-Luc in HeLa cells; type: cell-based; details: AGN 193109 10-100 nM coadministered
Procedure: Hela cells were transfected using the cationic liposome-mediated transfection procedure described by Feigner et al. in Proc. Natl. Acad. Sci. USA 84:7413 (1987). 5×10^4 cells were plated in 12-well multiwell plates and grown in DMEM supplemented with 10% FBS. Cells were cotransfected in serum-free medium using 2 μg/well of LIPOFECTAMINE reagent (Life Technologies, Inc.) with 0.7 μg of the reporter plasmid MTV-VDRE-Luc, containing two copies of the 1,25-dihydroxyvitamin D3 response element [NT] ID NO:4) from the mouse osteopontin gene (Ferrara et al. J. Biol. Chem. 269:2971 (1994)) ligated into the reporter plasmid ΔMTV-Luc (Heyman et al. in Cell 68:397 (1992)), and 0.3 μg of the plasmid pGEM3Z (Pharmacia, Inc.) as carrier DNA to bring the final concentration of DNA to 1.0 μg per well. After six hours of transfection, cells were fed with growth medium containing charcoal extracted FBS at a final concentration of 10%. […] Luciferase activity was measured as described above. This experimental system allowed a convenient method of monitoring and quantitating 1,25-dihydroxyvitamin D3-dependent gene expression.

[2] = target: T1, RARγ (Homo sapiens, UniProt P13631); assay: Example 16: transactivation, MTV-TREp-Luc in HeLa cells; type: cell-based
T1 sequence (P13631 1-454): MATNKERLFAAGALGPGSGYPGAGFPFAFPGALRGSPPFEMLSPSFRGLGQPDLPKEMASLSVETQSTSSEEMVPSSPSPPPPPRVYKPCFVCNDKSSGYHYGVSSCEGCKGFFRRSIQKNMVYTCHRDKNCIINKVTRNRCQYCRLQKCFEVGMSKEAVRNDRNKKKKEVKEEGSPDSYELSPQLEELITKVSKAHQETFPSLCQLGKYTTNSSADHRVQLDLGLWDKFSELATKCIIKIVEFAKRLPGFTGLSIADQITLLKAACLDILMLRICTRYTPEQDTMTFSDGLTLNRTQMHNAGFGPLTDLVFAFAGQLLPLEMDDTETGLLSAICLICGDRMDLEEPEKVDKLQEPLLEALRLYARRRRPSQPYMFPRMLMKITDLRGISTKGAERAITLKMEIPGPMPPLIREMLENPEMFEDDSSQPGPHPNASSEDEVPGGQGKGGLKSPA

[3] = system: stromelysin-1 expression in primary foreskin keratinocytes; assay: Example 21: stromelysin-1 expression in keratinocytes (RT-PCR); type: cell-based, human; details: AGN 191183 10^−7 M or AGN 193109 10^−6 M, 24 hours
Procedure: Total RNA prepared from mock-treated and retinoid-treated keratinocytes was reverse transcribed and the resulting cDNA was PCR amplified using β-actin or stromelysin-1 oligo primers exactly as described by Nagpal et al. in J. Biol. Chem. 270:923 (1995)), the disclosure of which has been incorporated by reference. A sample (10 μl) from the PCR amplification reaction was removed after every three cycles starting from 18 cycles of PCR amplification. The sample was electrophoresed on a 2% agarose gel and detected after ethidium bromide staining.

[4] = system: CaSki cell tumors; assay: Example 22: CaSki cell tumor growth in nude mice; type: in vivo; details: 20 μMol/kg AGN 193109 in corn oil daily, intragastric
Procedure: 1×10^6 CaSki cells are injected into each of a panel of nude mice. Tumor formation is assessed using techniques that will be familiar to one having ordinary skill in the art. After injection, mice are randomly divided into control and test groups. The control group receives a placebo. The test group is administered with AGN 193109. Animals administered with the placebo receive intragastric intubation of corn oil. The test animals receive 20 μMol/kg AGN 193109 in corn oil daily for the period of the treatment. Tumor volume is measured in […] using graduated calipers. Tumor volume is plotted as function of time.

[5] = system: cultured cervical carcinoma cells; assay: Example 23: cultured cervical carcinoma cells from a patient biopsy; type: cell-based; details: 10^−10 to 10^−6 M
From the text: A patient presenting with an advanced cervical carcinoma is first identified. A cervical biopsy is obtained according to methods that will be familiar to one having ordinary skill in the art. Cells from the explanted tumor are propagated in tissue culture according to standard techniques to provide cell numbers sufficient to allow division into three sample groups. Culture conditions described by Agarwal et al. in Cancer Res. 54:2108 (1994) are employed for this purpose. The first group is reserved as a control and receives vehicle alone (ethanol). The second group is treated with the RAR agonist retinoic acid at a concentration of from 10^−10 to 10^−6 M. The third group is treated with AGN 193109 at doses ranging from 10^−10 to 10^−6 M. Cells are fed with fresh growth medium daily and are provided with the retinoids described above as appropriate for each sample group. Cells are counted after three days using an electric cell counter.

For `Cc1ccc(C2=CCC(C)(C)c3ccc(C#Cc4ccc(C(=O)O)cc4)cc32)cc1` [Compound 60, 4-[(5,6-dihydro-5,5-dimethyl-8-(4-methylphenyl)-2-naphthalenyl)ethynyl]benzoic acid], the “increase in activity of 1,25-dihydroxyvitamin D3” value [1] was “approximately 10 fold”, the “inhibition of the response to 10^−9 M AGN 191183” value ([2]; 10^−9 M AGN 193109, HeLa cells, preliminary experiments) was “relatively ineffective” and the luciferase activity ([2]; AGN 193109 10^−11 and 10^−10 M with AGN 191183 10^−10 or 10^−9 M) was “stimulation of luciferase activity over that of AGN 191183 alone”. The “stromelysin-1 mRNA expression” value [3] was “down-regulation of stromelysin-1 mRNA levels”, the tumor growth rate [4] was “tumors which are significantly reduced in their growth rate” and the “cell number after three days” value [5] was “dose-dependent decrease in cell number”.
